# How the values were obtained:
# human COX-2 = target: T1, human COX-2 (Homo sapiens, UniProt P35354); assay: Inhibition of PGE2 release in COS cells stably transfected with human COX-2; type: cell-based; details: COS cells transfected with human COX-2, 30 μM arachidonic acid
# T1 construct: expressed in transfected cells; host or cells: COS cells (stably transfected)
# T1 sequence (P35354 18-604): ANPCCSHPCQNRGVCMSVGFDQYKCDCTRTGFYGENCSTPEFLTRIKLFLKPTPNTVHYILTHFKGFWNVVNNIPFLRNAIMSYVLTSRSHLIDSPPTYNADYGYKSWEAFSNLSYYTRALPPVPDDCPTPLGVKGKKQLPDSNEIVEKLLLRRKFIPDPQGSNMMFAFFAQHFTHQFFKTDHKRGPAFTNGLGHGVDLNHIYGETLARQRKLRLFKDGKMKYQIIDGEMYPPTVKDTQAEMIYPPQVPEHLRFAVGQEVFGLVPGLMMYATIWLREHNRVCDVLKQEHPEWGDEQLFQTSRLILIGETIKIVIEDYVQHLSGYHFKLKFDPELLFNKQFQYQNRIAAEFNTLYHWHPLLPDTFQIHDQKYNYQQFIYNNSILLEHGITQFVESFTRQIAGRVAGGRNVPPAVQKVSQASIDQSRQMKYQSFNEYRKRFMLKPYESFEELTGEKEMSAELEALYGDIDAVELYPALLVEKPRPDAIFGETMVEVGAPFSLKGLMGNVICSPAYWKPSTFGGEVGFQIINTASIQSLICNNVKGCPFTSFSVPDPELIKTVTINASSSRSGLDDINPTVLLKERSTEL
# Description: (§1) Inhibitory activity against human COX-1 and COX-2 was assessed in COS cells which had been stably transfected with cDNA for human COX-1 and human COX-2. 24 Hours prior to experiment, COS cells were transferred from the 175 cm^2 flasks in which they were grown, onto 24-well cell culture plates using the following procedure. The incubation medium (Dulbecco's modified eagles medium (DMEM) supplemented with heat-inactivated foetal calf serum (10%v/v), penicillin (100 lU/ml), streptomycin (100 μg/ml) and geneticin (600 μg/ml)) was removed from a flask of confluent cells (1 flask at confluency contains approximately 1×10^7 cells). 10 ml of phosphate buffered saline (PBS) was added to the flask to wash the cells. Having discarded the PBS, cells were then rinsed in 10 ml trypsin for 20 seconds, after which the trypsin was removed and the flask placed in an incubator (37°) for 1-2 minutes until cells became detached from the flask. The flask was then removed from the incubator and cells resuspended in 10 ml of fresh incubation medium. The contents of the flask was transferred to a 250 ml sterile container and the volume of incubation medium subsequently made up to 100 ml. 1 ml cell suspension was pipetted into each well of 4×24-well cell culture plates. The plates were then placed in an incubator (37° C., 95% air/5% CO2) overnight. If more than 1 flask of cells were required, the cells from flasks were combined before being dispensed into the 24-well plates.
# (§2) Following the overnight incubation, the incubation medium was completely removed from the 24-well cell culture plates and replaced with 250 μl fresh DMEM (37° C.). The test compounds were made up to 250× the required test concentration in DMSO and were added to the wells in a volume of 1 μl. Plates were then mixed gently by swirling and then placed in an incubator for 1 hour (37° C., 95% air/5% CO2). Following the incubation period, 10 μl of arachidonic acid (750 μM) was added to each well to give a final arachidonic acid concentration of 30 μM. Plates were then incubated for a further 15 minutes, after which the incubation medium was removed from each well of the plates and stored −20° C., prior to determination of prostaglandin E2 (PGE2) levels using enzyme immunoassay. The inhibitory potency of the test compound was expressed as an IC50 value, which is defined as the concentration of the compound required to inhibit the PGE2 release from the cells by 50%. The selectivity ratio of inhibition of COX-1 versus COX-2 was calculated by comparing respective IC50 values. The following IC50 values for inhibition of COX-2 and COX-1 were obtained for compounds of the invention: […]
# human COX-1 = target: T2, human COX-1 (Homo sapiens, UniProt P23219); assay: Inhibition of PGE2 release in COS cells stably transfected with human COX-1; type: cell-based; details: COS cells transfected with human COX-1, 30 μM arachidonic acid
# T2 construct: expressed in transfected cells; host or cells: COS cells (stably transfected)
# Description: as §1, §2
# T2 sequence (P23219 24-599): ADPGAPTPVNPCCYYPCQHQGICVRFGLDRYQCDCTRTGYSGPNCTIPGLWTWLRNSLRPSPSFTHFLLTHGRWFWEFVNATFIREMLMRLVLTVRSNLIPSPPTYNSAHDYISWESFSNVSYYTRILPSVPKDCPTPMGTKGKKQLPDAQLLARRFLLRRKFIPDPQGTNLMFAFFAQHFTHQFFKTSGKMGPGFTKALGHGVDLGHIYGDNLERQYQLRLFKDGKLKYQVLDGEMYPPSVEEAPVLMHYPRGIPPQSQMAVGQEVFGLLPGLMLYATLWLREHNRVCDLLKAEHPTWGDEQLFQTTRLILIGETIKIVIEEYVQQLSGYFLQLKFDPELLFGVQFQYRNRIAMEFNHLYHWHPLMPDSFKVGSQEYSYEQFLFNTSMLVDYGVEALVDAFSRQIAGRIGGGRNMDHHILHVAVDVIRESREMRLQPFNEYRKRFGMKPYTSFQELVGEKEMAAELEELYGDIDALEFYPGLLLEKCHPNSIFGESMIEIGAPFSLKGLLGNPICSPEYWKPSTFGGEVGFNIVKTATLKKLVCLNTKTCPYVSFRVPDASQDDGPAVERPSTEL
Structure (SMILES),IC50 (human COX-2),IC50 (human COX-1)
"CCOc1ccc(-c2nn3cc(C(F)(F)F)ccc3c2-c2ccc(S(N)(=O)=O)cc2)cc1 [Example 3, 4-[2-(4-Ethoxy-phenyl)-6-trifluoromethyl-pyrazolo[1,5-a]pyridin-3-yl]benzenesulfonamide]",0.034 µM,32.2 µM
"CS(=O)(=O)c1ccc(-c2c(-c3cccc(F)c3)nn3cc(C(F)(F)F)ccc23)cc1 [Example 2, 2-(3-Fluoro-phenyl)-3-(4-methanesulfonyl-phenyl)-6-trifluoromethyl-pyrazolo[1,5-a]pyridine]",0.548 µM,> 100 µM
"NS(=O)(=O)c1ccc(-c2c(-c3cccc(F)c3)nn3cc(C(F)(F)F)ccc23)cc1 [Example 1(vii), 4-[2-(3-Fluoro-phenyl)-6-trifluoromethyl-pyrazolo[1,5-a]pyridin-3-yl]benzenesulfonamide]",0.034 µM,> 100 µM

# Further lines, results first:
IC50 (human COX-2),IC50 (human COX-1),Structure (SMILES)
0.026 µM,> 100 µM,"CS(=O)(=O)c1ccc(-c2c(-c3ccc(F)cc3)nn3cc(C(F)(F)F)ccc23)cc1 [Example 5, 2-(4-Fluoro-phenyl)-3-(4-methanesulfonyl-phenyl)-6-trifluoromethyl-pyrazolo[1,5-a]pyridine]"
0.031 µM,26.3 µM,"NS(=O)(=O)c1ccc(-c2c(-c3ccccc3)nn3cc(C(F)(F)F)ccc23)cc1 [Example 6, 4-(2-Phenyl-6-trifluoromethyl-pyrazolo[1,5-a]pyridin-3-yl)-benzenesulfonamide]"
0.03 µM,> 100 µM,"CS(=O)(=O)c1ccc(-c2c(-c3ccccc3)nn3cc(C(F)(F)F)ccc23)cc1 [Example 7, 3-(4-Methanesulfonyl-phenyl)-2-phenyl-6-trifluoromethyl-pyrazolo[1,5-a]pyridine]"
0.034 µM,> 100 µM,"NS(=O)(=O)c1ccc(-c2c(-c3ccc(F)cc3)nn3cc(C(F)(F)F)ccc23)cc1 [Example 4, 4-[2-(4-Fluoro-phenyl)-6-trifluoromethyl-pyrazolo[1,5-a]pyridin-3-yl]benzenesulfonamide]"

# From patent publication US7223772B1, “Pyrazolopyridine derivatives as selective cox-2 inhibitors” (SmithKline Beecham Corporation, priority 1998, dated 2007)
